Experimental findings from patent US20250345492A1, “AN ANTIBACTERIAL POLYPEPTIDE COMPOUND, A MEDICAL DEVICE, HYDROGEL AND USE THEREOF” (priority 2020, published 2025) are described below.

Assay [1] relates to Bacillus subtilis (ATCC 23857). The conditions noted are these: standard strain. The essentials: (§1)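 Log-phase cells grown in MH (bacteria) or SD (fungi) medium at 37 °C were plated at 1×10^5 CFU/ml with 2-fold serially diluted peptide (1-256 μM solutions added at twice final concentration). After 12 h at 37 °C, MIC was taken as the first clear well by eye, in triplicate.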
For the next assay, the system named is C. albicans ATCC14053. The conditions noted are these: fungus. Summed up:
as §1

In another assay the test system is C. glabrata ATCC22019. The conditions noted are these: fungus. The essentials:
as §1

For the next assay, the system named is C. krusei ATCC6258. The conditions noted are these: fungus. The essentials:
as §1

The test system of the next assay is C. parapsilosis ATCC2001. To be noted: fungus. The essentials: as §1
The subject of assay [2] is Cronobacter sakazakii (ATCC 29544). To be noted: standard strain. Summed up:
as §1

Assay [3] relates to E-1b, clinical isolated drug-resistant strain ESBL. To be noted: strain E-1b (ESBL). The essentials: as §1
In assay [4] the test system is E-2b, clinical isolated drug-resistant strain ESBL. To be noted: strain E-2b (ESBL). The essentials:
as §1

For assay [5], the system named is E-3b, clinical isolated drug-resistant strain ESBL. The conditions noted are these: strain E-3b (ESBL). The essentials: as §1
Assay [6] deals with E-4b, clinical isolated drug-resistant strain ESBL. To be noted: strain E-4b (ESBL). Summed up: as §1
Assay [7] relates to E-5b, clinical isolated drug-resistant strain ESBL. To be noted: strain E-5b (ESBL). Summed up: as §1
The test system of assay [8] is E. coli (ATCC 25922). The conditions noted are these: standard strain. Summed up:
as §1

The subject of assay [9] is P-1c, clinical isolated drug-resistant strain PA. The conditions noted are these: strain P-1c (PA). The essentials:
as §1

Assay [10] deals with P-2c, clinical isolated drug-resistant strain PA. The conditions noted are these: strain P-2c (PA). Summed up:
as §1

Assay [11] relates to P-4c, clinical isolated drug-resistant strain PA. The conditions noted are these: strain P-4c (PA). The essentials: as §1
Assay [12] has as its system P-5c, clinical isolated drug-resistant strain PA. To be noted: strain P-5c (PA). Summed up:
as §1

Assay [13] relates to Pseudomonas aeruginosa (ATCC 27853). To be noted: standard strain. Summed up: as §1
The subject of assay [14] is S-3a, clinical isolated drug-resistant strain MRSA. To be noted: strain S-3a (MRSA). The essentials: as §1
Assay [15] deals with S-4a, clinical isolated drug-resistant strain MRSA. To be noted: strain S-4a (MRSA). The essentials:
as §1

Assay [16] deals with Staphylococcus aureus (ATCC 29213). The conditions noted are these: standard strain. Summed up:
as §1

Assay [17] deals with Staphylococcus epidermidis (ATCC 12228). To be noted: standard strain. Summed up: as §1
Assay [18] concerns E. coli (ATCC 25922). The assay can be described thus: Outer membrane permeability, NPN probe. It counts as cell-based. To be noted: 1×MIC to 8×MIC, NPN fluorescence, 15 min. As to the method: The destruction of bacterial cell OM was determined by using hydrophobic fluorescent probe NPN (1-N-phenylnaphthylamine) to determine the effect of the compounds on the OM permeability of E. coli (ATCC 25922).
Taking compounds 2, 8, 9, 13 and 15 of the present invention as examples, the OM permeability of E. coli with the presence of the antibacterial polypeptide compounds was analyzed. E. coli cells were washed twice with PBS solution and resuspended in 5 mM HEPES (pH 7.2), and then diluted to a concentration of […]. […] The excitation wavelength and emission wavelength were set to 350 nm and 420 nm, separately, and the cells were detected once every minute using a multifunctional ELISA reader within a 15-min period of time.

Assay [19] relates to E. coli ML-35 (ATCC 43837). The assay is described as follows: Inner membrane permeability, ONPG / β-galactosidase release. It counts as cell-based. To be noted: 1×MIC to 8×MIC, 90 min. How it is done:
The effect on the integrity of bacterial […] was determined by determining the release amount of β-galactosidase from E. coli ML-35 (ATCC 43837) with ONPG (o-nitrobenzene-β-D-galactoside), thereby detecting the effect of the compounds on the permeability of E. coli IM.
Taking compounds 2, 8, 9, 13 and 15 of the present invention as examples, the IM permeability of E. coli with the presence of the antibacterial polypeptide compounds was analyzed. E. coli ML-35 cells were washed twice with PBS solution and resuspended in 0.9% sodium chloride solution. […] The cells were detected at 420 nm once every 5 mins using a multifunctional ELISA reader within a 90-min period of time.

Ends that are not written are not given here.

By MIC is commonly meant the lowest concentration that inhibits growth of the organism. A low value points to a more susceptible organism.

In the case of “Pro-Trp-Orn-Leu-Orn-Leu-His-Leu-NH2 (PWXLXLHL; HELM PEPTIDE1{P.W.[Orn].L.[Orn].L.H.L.[am]}$$$$V2.0; N-terminus assumed; SMILES CC(C)C[C@H](NC(=O)[C@H](Cc1c[nH]cn1)NC(=O)[C@H](CC(C)C)NC(=O)[C@H](CCCN)NC(=O)[C@H](CC(C)C)NC(=O)[C@H](CCCN)NC(=O)[C@H](Cc1c[nH]c2ccccc12)NC(=O)[C@@H]1CCCN1)C(N)=O) [Compound 9]”, the “MIC B. subtilis ATCC23857” value in [1] worked out at 16 µM. For the same substance, the “MIC C. albicans ATCC14053” value against C. albicans ATCC14053 is 32 µM. Further, the “MIC C. glabrata ATCC22019” value in the assay on C. glabrata ATCC22019 was 16 µM. Moreover, the “MIC C. krusei ATCC6258” value against C. krusei ATCC6258 came to 64 µM. The “MIC C. parapsilosis ATCC2001” value in the assay on C. parapsilosis ATCC2001 was 16 µM. Besides, in assay [2], the “MIC C. sakazakii ATCC29544” value came to 16 µM. For the same substance, the MIC in assay [3], in assay [4], in [5], in assay [6], in assay [7] and in [9] was 8 µM throughout. Further, the MIC in [10] was determined as 8 µM; in assay [11], 8 µM; in assay [12], 8 µM; in assay [14], 64 µM; in assay [15], 64 µM. Further, in the assay with E. coli (ATCC 25922) [8], the “MIC C. coli ATCC25922” value worked out at 8 µM. The “MIC P. aerugmosa ATCC27853” value in assay [13] is 8 µM. For the same substance, the “MIC S. aureus ATCC29213” value in [16] was 64 µM. Besides, the “MIC S. epidermidis ATCC12228” value in [17] stood at 32 µM. In addition, the “OM permeability of E. coli” value in the assay on E. coli (ATCC 25922) [18] was “destroy the integrity of the E. coli OM in a dose-dependent manner”. For the same substance, the “IM permeability of E. coli” value in assay [19] is “destroying the integrity of the E. coli IM in a dose-dependent manner”.
Take “Pro-Phe-Lys-Leu-Ser-Leu-His-Leu-NH2 (PFKLSLHL-NH2) [Compound J-1, reference compound]”: the “MIC B. subtilis ATCC23857” value in assay [1] is 32 µM. In addition, the “MIC C. albicans ATCC14053” value against C. albicans ATCC14053 worked out at 64 µM. Besides, the “MIC C. glabrata ATCC22019” value in the assay with C. glabrata ATCC22019 is 64 µM. Besides, in the assay on C. krusei ATCC6258, the “MIC C. krusei ATCC6258” value came to 32 µM. Moreover, in the assay on C. parapsilosis ATCC2001, the “MIC C. parapsilosis ATCC2001” value was 32 µM. In addition, the “MIC C. sakazakii ATCC29544” value in [2] was found to be 64 µM. Besides, the MIC in assay [3], in assay [4], in assay [5], in assay [6], in assay [7] and in assay [9] was 32 µM in each case. Moreover, the MIC is 32 µM in [10]; 32 µM in [11]; 32 µM in assay [12]; 128 µM in assay [14]; 128 µM in assay [15]. Moreover, the “MIC C. coli ATCC25922” value against E. coli (ATCC 25922) [8] is 32 µM. For the same substance, the “MIC P. aerugmosa ATCC27853” value in assay [13] is 32 µM. The “MIC S. aureus ATCC29213” value in assay [16] was 128 µM. The “MIC S. epidermidis ATCC12228” value in assay [17] came out at 64 µM. Also, in the assay on E. coli (ATCC 25922) [18], the “OM permeability of E. coli” value is reported as “destroy the integrity of the E. coli OM in a dose-dependent manner”. The “IM permeability of E. coli” value in assay [19] is “destroying the integrity of the E. coli IM in a dose-dependent manner”.
